# Experimental data as given in patent US20250375458A1, “COMPOSITIONS AND METHODS TO COMBAT MULTIDRUG-RESISTANT AND […]-CELL-MEDIATED, O[…] INFECTIOUS DISEASES” (Theralase Technologies, Inc., priority 2024, published 2025).
# Experiments:
# [1] = test system: human Herpes Simplex 1 (HSV-1) virus; assay: HSV-1 virus yield in A549 host cells by plaque forming assay, with Bliss synergy score; format: cell-based; details: for HSV-1 yield suppression, single agent: A549 host cells, MOI 0.3, three days, 50 nM RUVIDAR or RUTHERRIN, 1 μM Acyclovir, 0.2% DMSO
# Protocol: A549 human lung cancer cells are used as a host for virus growth, treatment, and later survival quantification. A549 cells are plated overnight, then incubated for 4 hours with or without 50 nM RUVIDAR or RUTHERRIN, with or without 1 μM Acyclovir or 0.2% DMSO (concentration non-toxic for the host cells). After the initial incubation of the host cells with the compounds, the cells are infected with the human Herpes Simplex 1 (HSV-1) virus at the multiplicity of infection (MOI)=0.3 and further incubated for three days (the mentioned compounds are still present in the culture media over the full course of incubation). After that, supernatant is harvested, centrifuged to remove debris, and the yield of infectious virus is determined by plaque forming assay (PFA) using supernatant for the host cells infection. The formed plaques are counted, and virus titer is calculated as Plaque Forming Units/mL=(Plaques number*Dilution)/Volume of Virus Inoculum. Titers normalized for control titer (untreated HSV-1 and host cells) produce relative virus yield (which is equivalent to inhibition rate).
# The data are presented as virus yield normalized to Control. To estimate synergistic effect of two combined compounds, synergy Bliss score was calculated, as the difference between the actual inhibiting effect of the combination and the predicted inhibiting effect under “no synergy” assumption (Bliss score): Synergy score=Inhibition_RateCompound1 & Compound2−(Inhibition_RateCompound1+Inhibition_RateCompound2−Inhibition_RateCompound1* Inhibition_RateCompound2).
# U87 human glioma cells = assay: Hoechst 33342 dye accumulation by flow cytometry (MFI); format: cell-based; details: 3 μM 4 hours, then Hoechst 33342 1 hour
# Protocol: (§1) Hoechst 33342 is a nuclear dye commonly used to quantify drug efflux dynamics and drug accumulation in cells. […] Cells were then collected, and the MFI was determined by flow cytometry.
# [2] = test system: A549 human Non-Small Cell Lung Cancer cells; assay: as above; format: cell-based; details: 3 μM 4 hours, then Hoechst 33342 1 hour
# Protocol: as §1
# CD47 [3] = assay: CD47 expression in A549 cells, RUVIDAR or RUTHERRIN with or without ionizing radiation; format: cell-based, human; details: 3 μM
# Sequence of CD47 (Q08722 19-323): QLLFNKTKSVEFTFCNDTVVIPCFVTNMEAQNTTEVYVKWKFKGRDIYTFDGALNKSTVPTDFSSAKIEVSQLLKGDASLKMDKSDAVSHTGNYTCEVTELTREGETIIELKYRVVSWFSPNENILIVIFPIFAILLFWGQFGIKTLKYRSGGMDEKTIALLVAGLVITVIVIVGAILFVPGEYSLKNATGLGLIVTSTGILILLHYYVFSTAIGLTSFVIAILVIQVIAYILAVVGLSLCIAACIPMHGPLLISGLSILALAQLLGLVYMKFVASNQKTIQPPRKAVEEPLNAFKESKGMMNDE
# Protocol: In the tests whose results are shown in FIGS. 8C and 8D, U87 human glioma cells or A549 lung cancer cells were treated with 3 μM of RUTHERRIN or RUVIDAR prior to drug activation by 530 nm laser light (photodynamic therapy, PDT) or ionizing radiation. Cells were then collected and stained with fluorescent antibody to CD47 and analyzed by flow cytometry. MFI was normalized to control untreated cells and expressed as percentage of change.
# [4] = test system: U87 human glioma cancer cells; assay: Presto Blue cell survival, RUVIDAR with or without N-acetylcysteine; format: cell-based; details: overnight
# Protocol: U87 human glioma cancer cells were plated overnight, then treated with different doses of RUVIDAR in the presence or absence of N-acetylcysteine, a known ROS scavenger to quench the increase in ROS production. Cells were incubated overnight, and cell survival was analyzed using Presto Blue assay.
# CD47 [5] = assay: CD47 expression by flow cytometry in T24 cells; format: cell-based, human; details: 3 μM for 2 days, MFI normalized to untreated cells
# Protocol: (§2) In the tests whose results are shown in FIGS. 8A and 8B, T24 human bladder cancer cells or U87 human glioma cells were treated with 3 μM of RUVIDAR or RUTHERRIN for 2 days, and cells were collected and stained with fluorescent-labelled antibodies to CD47 and PD-L1 and analyzed by flow cytometry. MFI was normalized to control untreated cells and expressed as percentage of change.
# PD-L1 = PD-L1 expression by flow cytometry in T24 cells; format: cell-based, human; details: 3 μM for 2 days, MFI normalized to untreated cells
# Sequence of PD-L1 (Q9NZQ7 19-290): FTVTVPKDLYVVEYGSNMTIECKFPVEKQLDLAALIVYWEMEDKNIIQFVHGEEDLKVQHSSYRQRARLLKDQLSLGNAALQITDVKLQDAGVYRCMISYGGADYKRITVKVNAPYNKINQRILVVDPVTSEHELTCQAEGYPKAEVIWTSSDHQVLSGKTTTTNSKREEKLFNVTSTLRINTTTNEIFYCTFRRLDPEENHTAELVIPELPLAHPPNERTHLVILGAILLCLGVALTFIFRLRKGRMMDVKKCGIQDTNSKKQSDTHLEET
# Protocol: as §2
# [6] = 50 nM RUVIDAR or RUTHERRIN plus 1 μM Acyclovir
# [7] = 50 nM RUVIDAR or RUTHERRIN plus 0.2% DMSO
Molecule,"HSV-1 yield suppression, single agent [1]",Hoechst 33342 dye accumulation (MFI) (U87 human glioma cells),Hoechst 33342 dye accumulation (MFI) [2],"percentage change in CD47 expression, drug alone (CD47 [3]; no radiation)","percentage change in CD47 expression, with ionizing radiation (CD47 [3]; then ionizing radiation)","cell kill percent ([4]; RUVIDAR only, different doses)",cell kill percent in the presence of N-acetylcysteine ([4]; RUVIDAR plus ROS scavenger N-acetylcysteine),percentage change in expression of CD47 (CD47 [5]),percentage change in expression of PD-L1 (PD-L1),"HSV-1 yield suppression, combined with Acyclovir [1, 6]","synergy score (Bliss), combined with Acyclovir [1, 6]","HSV-1 yield suppression, combined with DMSO [1, 7]","synergy score (Bliss), combined with DMSO [1, 7]"
"Nc1nc2c(ncn2COCCO)c(=O)[nH]1 [Acyclovir, reference compound]",anti-viral effect to various degrees,,,,,,,,,,,,
C[S+](C)[O-] [DMSO],anti-viral effect to various degrees,,,,,,,,,,,,
"Ru(4,4′-dimethyl-2,2′-bipyridine)2(2-(2′,2″:5″,2″-terthiophene)-imidazo[4,5-f][1,10] phenanthroline) [RUVIDAR]",anti-viral effect to various degrees,increases dye accumulation inside the cells,increases dye accumulation inside the cells,significantly reduced,more significant reduction,dose-dependent increase in cell kill,significantly reduced,significantly reduced,significantly reduced,significantly potentiated,0.040±0.013,significantly potentiated,0.030±0.010
